# Reference: patent US6893633B2, “Methods and compositions for promoting the maturation of monocytes” (Maxim Pharmaceuticals, Inc., priority 2000, dated 2005)
# Columns and labels:
# [1] = system: metastatic melanoma of the liver; details: histamine phosphate 10 mg/day with G-CSF 200,000 U/kg/day
# Method: A subject presenting with metastatic melanoma of the liver is administered 200,000 U/kg/day of G-CSF and histamine phosphate at a dose of 10 mg/day.
# [2] = system: monocytes HLA-DR expression
# [3] = system: prostate cancer; details: histamine dihydrochloride 4 mg/day with CSF 300,000 U/kg/day and IL-12 100,000 U/kg/day
# Method: A subject presenting with prostate cancer is administered 300,000 U/kg/day of CSF, 100,000 U/kg/day of IL-12, and histamine dihydrochloride at a dose of 4 mg/day.
# [4] = system: CD3+ T cells, CD3-/56+ NK cells, and CD3+/56+ NK/T cells; details: apoptosis induced by autologous MO or GR; p<0.001
# Description: (§1) In human liver, NK-cells as well as NK/T-cells are much more abundant than in peripheral blood. […] All data are the mean±s.e.m. (n=15-30 blood donors).
# [5] = system: CD86 antigen on human monocytes; experiment: CD86 antigen expression on human monocytes after treatment with histamine and/or GM-CSF; assay type: cell-based
# Description: Separation of monocytes. […] Hospital, Göteborg, Sweden. […] Treatment and cell staining.
# [6] = system: NK/T cells; details: human, 25 μM
# Description: as §1
# [7] = system: T cells; details: human, 25 μM
# Description: as §1
# [8] = system: NK cells; details: human, 25 μM
# Description: as §1
# [9] = system: Plasmodia species; experiment: Treatment of malaria infection; assay type: in vivo; details: serotonin 6 mg/day with GM-CSF 100,000 U/kg/day, parenteral
# Method: A subject presenting with malaria is parenterally administered GM-CSF at a rate of 100,000 U/kg/day and serotonin at a dosage of 6 mg/day. The composition acts to enhance monocyte maturation, thereby allowing the subject's immune system to eradicate cells infected with Plasmodia species. Specifically, serotonin enhances the monocyte maturation-promoting activity of […]. An increase in the number of dendritic cells presenting antigens associated with Plasmodia is observed. T-cells recognize the Plasmodia antigens, as foreign, attack, and kill the cells. The number of infected cells decreases.
# [10] = system: malignant melanoma; details: melanoma patients with stage III or stage IV disease; cited from earlier work
molecule,measurement,setting,value
NCCc1c[nH]cn1.O=P(O)(O)O [histamine phosphate],tumor mass,[1],decrease
"Cl.Cl.NCCc1c[nH]cn1 [histamine, histamine dihydrochloride]",monocytes HLA-DR expression,[2],up-regulated
same,tumor mass,[3],decrease
same,prevention of apoptosis in all cell types,[4],significantly prevented
same,intensity of cell surface expression of CD86,[5]; histamine treatment alone,moderately enhanced
OO [hydrogen peroxide],NK/T cells that became apoptotic,[6],78±7%
same,T cells that became apoptotic,[7],35±5%
same,NK cells that became apoptotic,[8],65±7%
NCCc1c[nH]c2ccc(O)cc12 [serotonin],number of dendritic cells presenting antigens associated with Plasmodia,[9],increase
same,number of infected cells,[9],decreases
granulocyte-macrophage colony-stimulating factor [GM-CSF],median survival time vs matched control patients,[10],increased by a factor of three
same,mean of the monocytes that expressed CD86,"[5]; overnight incubation (16 hrs), GM-CSF 0.15 μg/ml, histamine dihydrochloride 10 μM",88%
